Reference: patent US7465718B2, “Ansamycins having improved pharmacological and biological properties” (Conforma Therapeutics Corporation, priority 2002, dated 2008)

Key:
[1] = system: HSP90 (cell lysate, high affinity); experiment: Biotin-geldanamycin competition binding, HSP90 in cell lysate (high affinity); conditions: for ratio: rHsp90 (low affinity) IC50 over lysate (high affinity) IC50; for IC50: read-out: Lysate (high affinity) IC50 nM, inhibition of biotin-GM binding to HSP90 in cell lysate, 4° C.
[2] = biological target: rHsp90 (low affinity); experiment: Biotin-geldanamycin competition binding, purified native HSP90 protein (rHsp90, low affinity); conditions: read-out: rHsp90 (low affinity) IC50 nM; inhibition of biotin-GM binding to purified HSP90, 4° C.
[3] = system: HIV-1ROJO; experiment: Anti-HIV PBMC assay (reverse transcriptase activity in supernatant); conditions: for TI (therapeutic index, TC50/IC50): HIV-1ROJO in PBMCs; for IC50: read-out: IC50 (μM) (50% inhibition of virus replication), HIV-1ROJO in fresh human PBMCs, 7 days
[4] = MTS assay to measure cytotoxicity of PBMC; type: cell-based, human; conditions: human, PBMC, PBMCs without virus, read-out: TC50 (μM) (50% cytotoxicity)
Protocol: (§1) PBMC's in 96 well plates that were treated with compounds (without virus) were assayed for cell viability and compound toxicity using an MTS assay (CellTiter 96 Aqueous Non-Radioactivity Cell Proliferation Assay, Promega, Madison; Wis.).

[5] = biological target: HSP90 (bis-ANS treated); experiment: Biotin-geldanamycin competition binding, bis-ANS treated HSP90
[6] = system: PBMC; experiment: MTS assay to measure cytotoxicity of PBMC; type: cell-based, human; conditions: PBMCs without virus, read-out: TC50 (μM) (50% cytotoxicity)
Protocol: as §1

[7] = Water solubility studies (salts dissolved in water at room temperature); type: physicochemical; conditions: thermodynamic from solid, HCl salt, read-out: Solubility of the HCl salt in H2O
Protocol: Various salts were prepared as described in the example section and dissolved in water at room temperature.

[8] = system: Her-2; experiment: HER2 inhibition assay (Her-2 degradation in MCF7 cells, flow cytometry); type: cell-based; conditions: read-out: HER-2 degradation (IC50 nM)
Protocol: MCF7 cells are seeded in 24 well plates at a density of approximately 30,000 cells/well and allowed to grow for 16 hours in DMEM supplemented with 10% FBS. Drug is then added at a concentration range of 100 uM to 0.01 uM. Cells are incubated for an additional 24. […] 10,000 events were collected per sample. A fluorescence histogram was generated and the mean fluorescence intensity (mfi) of each sample was determined using Cellquest software. The background was defined as the mfi generated from cells incubated with control IgG, and was subtracted from each sample stained with the HER-2/neu Ab. Percent degradation of Her-2 was calculated as follows: % Her-2 degradation=(mfi HER-2 sample)/(mfi HER-2 untreated cells)×100 Water Solubility Studies

[9] = system: primary human breast tumor xenograft; experiment: Transplantable primary human breast tumor xenograft model; type: in vivo; conditions: 30 mg/kg intraperitoneally
[10] = system: SKOV-3 ovarian xenograft; experiment: SKOV-3 ovarian xenograft model; type: in vivo; conditions: tumors 200 mm3 before commencement of treatment
Description: Compounds have also been tested in HER-2 over-expressing tumor models such as BT474 breast and SKOV-3 ovarian carcinoma A therapy experiment with SKOV-3 is shown in FIG. 6. The treatment, doses, and schedule were the same as used in the A549 and MDA435 experiments. In this case, the tumors were allowed to become established and grow to a relatively large size (200 mm3) before commencement of treatment.

[11] = system: MDA435 breast tumor; experiment: MDA435 breast tumor model; type: in vivo, nude mice; conditions: four courses of therapy; 25 or 30 mg/kg, 40 or 50 mg/kg
Protocol: When the tumors were ˜50 mm3 in size, the animals were randomized into groups of five (10 tumors/group). Therapy commenced under the schedule described for the A549 model. Animals were treated with vehicle (triangles) or one of two doses (25 or 30 mg/kg, squares; 40 or 50 mg/kg, circles) of drugs.

[12] = system: A549 xenografts; experiment: A549 xenograft growth in vivo; conditions: IP injections, three consecutive days each week for four weeks
Description: Similar efficacy has been seen with five second-generation ansamycins, some of which are being developed as back-ups to Compound#237.

Row | SMILES | melting point | ratio [1] | IC50 [1] [nM] | IC50 [2] [nM] | TI (therapeutic index, TC50/IC50) [3] | IC50 [3] [µM] | CC50 [4] [µM] | solubility [7] [µg/mL] | IC50 [8] [nM] | further results
1 | COC1/C=C\C=C(/C)C(=O)NC2=CC(=O)C(NC(=O)c3ccccn3)=C(CC(C)CC(OC)C(O)C(C)/C=C(\C)C1OC(N)=O)C2=O (stereo not shown) [Compound #529, 17-picolinoyl-aminogeldanamycin] | 195 to 197 °C | 67 | 15 | 1000 | – | – | – | – | – | –
2 | C=CCO/N=C1/[C@@H](OC)C[C@H](C)CC2=C(NC(=O)c3ccccc3)C(=O)C=C(NC(=O)/C(C)=C/C=C\[C@H](OC)[C@@H](OC(N)=O)/C(C)=C/[C@@H]1C)C2=O (stereo in doubt) [Compound #1011] | – | – | – | – | 14.5 | 0.2 | 2.9 | – | – | IC50 [5]: 5 µM
3 | Cc1cn([C@H]2C[C@H](N=[N+]=[N-])[C@@H](CO)O2)c(=O)[nH]c1=O [AZT Control, reference compound] | – | – | – | – | >197.6 | 0.0051 | – | – | – | CC50 [6]: > 1 µM
4 | CO[C@H]1/C=C\C=C(/C)C(=O)NC2=CC(=O)C(NC(=O)OCc3ccc(OC(C)=O)cc3)=C(C[C@@H](C)C[C@H](OC)[C@H](O)[C@@H](C)/C=C(\C)[C@@H]1OC(N)=O)C2=O [Compound #709] | – | 167 | 9 | 1500 | – | – | – | – | – | –
5 | COC1C=CC=C(C)C(=O)NC2=CC(=O)C(NCCCN(C)CCCNC3=C4CC(C)CC(OC)C(O)C(C)C=C(C)C(OC(N)=O)C(OC)C=CC=C(C)C(=O)NC(=CC3=O)C4=O)=C(CC(C)CC(OC)C(O)C(C)C=C(C)C1OC(N)=O)C2=O (stereo not shown) [Compound #208] | 153 °C (dec.) | – | – | – | 38.6 | 0.007 | 0.27 | ≥ 20000 | 11 | –
6 | COC1C=CC=C(C)C(=O)NC2=CC(=O)C(NCCCNCCCNC3=C4CC(C)CC(OC)C(O)C(C)C=C(C)C(OC(N)=O)C(OC)C=CC=C(C)C(=O)NC(=CC3=O)C4=O)=C(CC(C)CC(OC)C(O)C(C)C=C(C)C1OC(N)=O)C2=O (stereo not shown) [Compound #237] | 165 °C | 67 | 30 | 2000 | – | – | – | ≥ 13000 | 20 | tumor growth inhibition in primary human breast tumor xenograft [9]: 86%; tumor growth in SKOV-3 xenograft [10]: suppressed tumor growth almost completely; inhibition of tumor growth in MDA435 [11]: 70 to 100%; growth of A549 xenografts [12]: blocks the growth
7 | CO[C@H]1/C=C\C=C(/C)C(=O)NC2=CC(=O)C(NC(=O)c3ccc(CN(C)C)cc3)=C(C[C@@H](C)C[C@H](OC)[C@H](O)[C@@H](C)/C=C(\C)[C@@H]1OC(N)=O)C2=O [Compound #687, 17-(4-dimethylaminomethyl-benzoyl)-aminogeldanamycin] | 203 to 206 °C | 250 | 8 | 2000 | – | – | – | – | – | –
8 | COC1/C=C\C=C(/C)C(=O)NC2=CC(=O)C(NC(=O)c3ccncc3)=C(CC(C)CC(OC)C(O)C(C)/C=C(\C)C1OC(N)=O)C2=O (stereo not shown) [Compound #530, 17-isonicotinoyl-aminogeldanamycin] | 167 to 169 °C | – | – | – | – | – | – | > 2000 | 100 | –
9 | CO[C@H]1/C=C\C=C(/C)C(=O)NC2=CC(=O)C(NC(=O)OCC(C)C)=C(C[C@@H](C)C[C@H](OC)[C@H](O)[C@@H](C)/C=C(\C)[C@@H]1OC(N)=O)C2=O [Compound #749] | – | – | – | – | 56.0 | 0.02 | 1.12 | – | – | –
10 | C=CCNC1=C2C[C@@H](C)C[C@H](OC)[C@H](O)[C@@H](C)/C=C(\C)[C@H](OC(N)=O)[C@@H](OC)/C=C\C=C(/C)C(=O)NC(=CC1=O)C2=O [Compound 17-AAG, 17-allyl amino geldanamycin, reference compound] | – | – | – | – | – | 0.38 | 2.02 | < 10 | 5 | –
11 | COC1/C=C\C=C(/C)C(=O)NC2=CC(=O)C(NC(=O)c3ccccc3)=C(CC(C)CC(OC)C(O)C(C)/C=C(\C)C1OC(N)=O)C2=O (stereo not shown) [Compound #563, 17-(benzoyl)-aminogeldanamycin] | 218 to 220 °C | 90 | 50 | 4500 | – | – | – | – | – | tumor growth in SKOV-3 xenograft [10]: suppressed tumor growth almost completely
